Assay results reported in the supplement of paper PMC11451515.

How the values were obtained:
Assay in all cases: AUC of viability dose-response curve (% viability x log10 dose units); higher = less sensitive
Conditions in all cases: 48 h
NOMO1 = tested on: NOMO1
How it was run: (§1)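 Medium-adapted leukemia cells in 1536-well plates, at 500 or 1000 cells/well, were incubated for 48 h at 37°C with library compounds in DMSO at 11 threefold doses from 47 μM to 0.79 nM. CellTiter-Glo One luminescence normalised per plate to DMSO and cell-free wells was fitted with a four-parameter log-logistic model over log10 doses. Area under the curve was integrated from this fit by trapezoidal rule, with curves beyond full viability scaled and failed quality-control curves removed.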

P12-Ichikawa = tested on: P12-Ichikawa
How it was run: as §1

SEM cells = tested on: SEM cells
How it was run: as §1

[1] = RPMI 5 mM glucose + 10% dialyzed FBS

SMILES | AUC of viability dose-response curve (NOMO1; HPLM + 10% dialyzed FBS) | AUC of viability dose-response curve (NOMO1; RPMI 5 mM glucose + 10% FBS) | AUC of viability dose-response curve (NOMO1; [1]) | AUC of viability dose-response curve (P12-Ichikawa; HPLM + 10% dialyzed FBS) | AUC of viability dose-response curve (P12-Ichikawa; RPMI 5 mM glucose + 10% FBS) | AUC of viability dose-response curve (P12-Ichikawa; [1]) | AUC of viability dose-response curve (SEM cells; HPLM + 10% dialyzed FBS) | AUC of viability dose-response curve (SEM cells; RPMI 5 mM glucose + 10% FBS) | AUC of viability dose-response curve (SEM cells; [1])
[NH2][Pt]([NH2])([Cl])[Cl] | 456 | 421 | 445 | 470 | 449 | 433 | 429 | 419 | 380
CCc1c(C(=O)C(N)=O)c2c(OCC(=O)O)cccc2n1Cc1ccccc1 | 442 | 465 | 463 | 471 | 460 | 452 | 462 | 464 | 461
Cc1nccn1CC1CCc2c(c3ccccc3n2C)C1=O (stereo unspecified) | 447 | 465 | 462 | 448 | 422 | 462 | 441 | 453 | 429
C\C1=C\N([C@H]2C[C@H](N=[N+]=[N-])[C@@H](CO)O2)C(=O)NC1=O | 365 | 339 | 362 | 419 | 425 | 452 | 388 | 434 | 425
OC(=O)\C1=C\N(C2=CC=C(F)C=C2)C3=C(C=C(F)C(=C3)N4CCNCC4)C1=O | 447 | 475 | 451 | 457 | 464 | 452 | 446 | 476 | 448
Cc1cccc(C#Cc2ccccc2)n1 | 461 | 464 | 463 | 456 | 445 | 450 | 456 | 455 | 449
CC(C)Nc1cc(C(F)(F)F)cc2nc(NC(=O)c3cccnc3)nn12 | 406 | 394 | 386 | 334 | 364 | 350 | 340 | 323 | 329
NC(=O)c1ncn([C@@H]2O[C@H](CO)[C@@H](O)[C@H]2O)n1 | 354 | 403 | 380 | 447 | 424 | 423 | 471 | 453 | 471
O=C(O)c1ccc(-n2nc(-c3ccccc3O)nc2-c2ccccc2O)cc1 | 441 | 442 | 408 | 433 | 422 | 422 | 427 | 408 | 415
